Data as given in paper PMC5766608, “Target engagement imaging of PARP inhibitors in small-cell lung cancer” (Nature Communications, 2018).
Like-named read-outs stand apart in the source and are kept apart here.

Assays:
PARP2 = target: T1, PARP2 (Homo sapiens, UniProt Q9UGN5); assay: PARP2 IC50 assay (BPS Bioscience, Strep-HRP, histone substrate); assay type: biochemical; details: footnote a: see Supplementary Fig. 2
T1 construct: purchased BPS Bioscience, San Diego, CA
Method: Assays were performed by BPS Bioscience, San Diego, CA. […] Data was reported by BPS a`s % enzyme activity curve from 0.03 nM or 0.1 nM to 1000 nM.

PARylation in LX22 cells = assay: PARylation inhibition assay (western blot for PAR); assay type: cell-based, human; details: 0.1 µM, 30 min incubation
Method: Whole cell lysates were prepared by incubating cells with RIPA Buffer with Triton X (BP-140, Boston BioProducts) containing Protease Inhibitor (Complete EASYpacks, Sigma-Aldrich) for 30 min on ice, followed by 30 min centrifugation at 10,000 × g for 30 min at 4 °C. Protein concentration of lysates was determined using a Bicinchoninic acid (BCA) assay kit (#23225, Pierce) and following the manufacturers instructions. SDS gel electrophoresis and immunoblotting were carried out following standard procedures. Signal detection was carried out using chemiluminescent substrate (#34077, Thermo Scientific). Densitometric analysis of western blots was carried out using ImageJ (NIH). To detect PAR, we used a rabbit polyclonal anti-PAR polymer antibody (1:1000 dilution, #4336-BPC-100, Trevigen) followed by a goat anti-rabbit IgG-HRP secondary antibody (1:10,000 dilution, sc-2004, SantaCruz). B-actin was used as loading control (1:1000 dilution, A3854, Sigma-Aldrich) and was stained after stripping the blot for 30 min at room temperature using stripping buffer (Amresco).
Supplementary Figure 3 | PARylation inhibition assay.
PARPi-FL and [18F]PARPi quantify PARP inhibition, we compared their ability to inhibit PARylation
in comparison with olaparib.
inhibition. At 1 µM, the PAR signal for all three compounds is nearly completely eliminated.

PARP1/2 [1] = details: for Blocking of [18F]PARPi tumor uptake (target engagement): 30 min before tracer, PET 2 h later
Excerpt: Fig. 7 Variable dose blocking.
The control group received no therapeutic inhibitor.

PARP1/2 [2] = details: olaparib 50 mg/kg; for Initial blocking (t = 1 h): talazoparib 0.3 mg/kg i.v., 60 min between drug and tracer
Method: Error bars represent the SD
All PET/CT images (n = 90) were acquired on an Inveon PET/CT (Siemens) and reconstructed scans were analyzed using the Inveon Research Workplace Software (Siemens). To acquire PET/CT images, animals were anesthetized with 2% isoflurane and positioned on the scanner bed. […] PET data were collected for 5–10 min, followed by CT.
Activity concentration was quantified by averaging the mean values taken from VOIs drawn over the entire tumor as it appeared in the CT and portrayed as a mean %ID/g ± SD.

PARP = details: cited from earlier work
PARP1/2 [3] = assay: Ex vivo autoradiography of target engagement; details: olaparib 50 mg/kg, talazoparib 0.3 mg/kg, 30 min prior to tracer; tumor collected 2 h post tracer
Excerpt: Sections from 3 different tumor areas from each tumor (n = 3/group) were exposed to an autoradiography plate overnight and read the next day. ImageJ was used to quantify the signal intensity of each tissue. Adjacent sections were used for PARP1 IHC and H&E staining to confirm tissue identity and PARP1 expression.

T1 sequence (Q9UGN5 whole entry): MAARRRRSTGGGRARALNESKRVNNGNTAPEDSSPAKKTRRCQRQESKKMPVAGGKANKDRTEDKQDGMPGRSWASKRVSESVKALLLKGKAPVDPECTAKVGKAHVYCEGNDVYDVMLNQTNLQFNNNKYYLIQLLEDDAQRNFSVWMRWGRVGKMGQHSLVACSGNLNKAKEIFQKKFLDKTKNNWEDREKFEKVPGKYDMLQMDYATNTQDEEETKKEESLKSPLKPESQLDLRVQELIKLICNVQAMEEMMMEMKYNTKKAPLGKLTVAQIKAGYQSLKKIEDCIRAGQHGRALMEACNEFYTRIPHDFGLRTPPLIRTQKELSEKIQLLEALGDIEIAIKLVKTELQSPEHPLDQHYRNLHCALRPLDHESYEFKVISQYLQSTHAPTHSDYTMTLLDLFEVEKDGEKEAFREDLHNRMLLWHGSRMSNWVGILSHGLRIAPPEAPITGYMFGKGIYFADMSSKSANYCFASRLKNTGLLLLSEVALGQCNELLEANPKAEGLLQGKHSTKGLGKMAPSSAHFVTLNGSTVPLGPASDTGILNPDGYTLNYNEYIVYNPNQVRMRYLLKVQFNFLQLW

IC50 (PARP2) | Compound | Inhibition of PARylation (PAR signal) (PARylation in LX22 cells) | Blocking of [18F]PARPi tumor uptake (target engagement) (PARP1/2 [1]; 0.3 mg/kg i.v.) | Blocking of [18F]PARPi tumor uptake (target engagement) (PARP1/2 [1]; 0.9 mg/kg i.v.) | Blocking of [18F]PARPi tumor uptake (target engagement) (PARP1/2 [1]; 5 mg/kg i.v.) | Blocking of [18F]PARPi tumor uptake (target engagement) (PARP1/2 [1]; 15 mg/kg i.v.) | 50% blocking dose (PARP1/2 [1]; single-phase decay curve fit, JHU-LX48 PDX tumor) | Initial blocking (t = 1 h) (PARP1/2 [2]) | Initial blocking (t = 1 h) (PARP1/2 [2]; listed as talazoparib) | AUC (PARP1/2 [2]; target engagement over 48 h, single dose, talazoparib 0.3 mg/kg) | t1/2 (weighted) (PARP1/2 [2]; two phase decay fit of target engagement, talazoparib 0.3 mg/kg) | PARP trapping, in words (PARP) | [18F]PARPi tumor uptake blocked (autoradiography) (PARP1/2 [3])
0.31 nM | CC1=CC(C)=[N+]2C1=Cc1ccc(CCC(=O)N3CCN(C(=O)c4cc(Cc5n[nH]c(=O)c6ccccc56)ccc4F)CC3)n1[B-]2(F)F [PARPi-FL] | reduced PAR signal, but not complete |  |  |  |  |  |  |  |  |  |  | 
 | Cn1ncnc1[C@H]1c2n[nH]c(=O)c3cc(F)cc(c23)N[C@@H]1c1ccc(F)cc1 [Talazoparib, (8S,9R)-5-Fluoro-8-(4-fluorophenyl)-9-(1-methyl-1H-1,2,4-triazol-5-yl)-2,7,8,9-tetrahydro-3H-pyrido[4,3,2-de]phthalazin-3-one] |  | 50% | 64% | 89% | 84% | 0.36 mg/kg | 56% | 56% | 1021 %h | 9.8 h | most effective PARP trapping agent | 45%
 | O=C(c1ccc(F)cc1)N1CCN(C(=O)c2cc(Cc3n[nH]c(=O)c4ccccc34)ccc2F)CC1 [^19F-PARPi] | nearly complete inhibition |  |  |  |  |  |  |  |  |  |  | 
